Tests used:
[1] = tested on: mice; test: Acute toxicity, intraperitoneal administration to mice; assay type: in vivo, mouse; conditions: 100 mg/kg
[2] = Anti-depressant activity; conditions: no test details given
[3] = Solubility; assay type: physicochemical; conditions: for Solubility: insoluble in: solvents in which insoluble; for Solubility: soluble in: solvents in which soluble
[4] = Nature (basicity); assay type: physicochemical

| SMILES | Acute toxicity: mortalities [1] | anti-depressant activity [2] | Solubility: insoluble in [3] | Solubility: soluble in [3] | Nature [4] |
| --- | --- | --- | --- | --- | --- |
| Nc1ncnc2c1ncn2C1C(O)C2OC2(CO)C1O (stereo not drawn) [neplanocin B] | No mortalities were observed | has an anti-depressant activity | Insoluble: ethyl acetate, chloroform, benzene and diethyl ether | Soluble: water and dimethyl sulphoxide | weakly basic |
| Nc1ncnc2c1ncn2C1C(O)C=C(CO)C1O (stereo not drawn) [neplanocin F] | No mortalities were observed | – | Insoluble: ethyl acetate, chloroform, benzene and diethyl ether | Soluble: water, dimethyl sulphoxide and acetic acid | weakly basic |

From patent US4321376A, “Neplanocin-B and -F” (Toyo Jozo Kabushiki Kaisha, priority 1979, dated 1982)
